Measurements: patent US20240269308A1, “PRODRUGS OF TOPOISOMERASE I INHIBITOR FOR ADC CONJUGATIONS AND METHODS OF USE THEREOF” (priority 2022, published 2024)
Where two headings read alike, the source gives them in different places.

How the values were obtained:
[1] = M3385 metabolism in human liver S9 with NADPH and UDPGA; assay type: in vitro ADME; conditions: M3385 incubated in human liver S9 with NADPH and UDPGA, 240 min; single peak (parent or metabolite)
From the text: (§1) Briefly, hepatocytes are complete liver cells, containing various first-phase and second-phase enzymes that can mediate various metabolic reactions; therefore, it is a better in vitro model to test metabolites. Liver S9 is the supernatant obtained by grinding and centrifuging the liver cells. The enzymes content is lower compared to Hepatocytes. It mainly contains CYP enzymes and some biphasic enzymes (but no biphasic coenzyme), so additional coenzyme (NADPH and UDPGA, etc.) is needed to mediate the biphasic reaction.
The metabolism of model compound M3385 was evaluated in human liver S9 with NADPH and UDPGA as follows:
(§2) Assay buffer: 100 mM potassium phosphate buffer (K+/Mg2+ buffer, pH7.4):
(§3) The initial stock of liver S9 was diluted in K+/Mg^2+ buffer, pH 7.4 from 20 mg/ml to 2× Liver S9 (2 mg/mL) with alamethicin (50 μg/mL):
(§4) 2×LS9/compound M3385 solution was prepared.
(§5) Time zero/T0: 199 μL 2 mg/mL liver S9 solution; 100 μL of 8 mM NADPH solution; 100 μL of 20 mM UDPGA solution; and 1200 μL of ACN were added, vortexed at 1000 rpm for 5 min, then 1 μL of 4 mM test compound solution was added.
T240 with a co-factor: 199 μL 2 mg/mL liver S9 solution; 100 μL of 8 mM NADPH solution; and 100 μL of 20 mM UDPGA solution were added. The T240 sample was prewarmed at 37° C. for 5 min and 1 μL of 4 mM test compound solution was added. After 240 min incubation, 1200 μL of ACN was added and then vortexed at 1000 rpm for 5 min.
(§6) Protein precipitation: quenched samples were centrifuged at 14000 rpm for 5 min.
(§7) Sample preparation: an aliquot of 1200 μL of the supernatant was evaporated under N2 stream until dry. Dried extracts were reconstituted with 200 μL of 25% aqueous ACN, vortexed for 2 minutes, centrifuged at 14000 rpm for 5 min, and then 3 μL of reconstituted supernatant were injected for LC-UV-MS analysis.

[2] = M3385 metabolism in human liver S9 without cofactors NADPH and UDPGA; assay type: in vitro ADME; conditions: 240 min
From the text: as §1, §2, §3, §4, §5
T240-without a co-factor: 199 μL 2 mg/mL liver S9 solution and 200 μL of buffer were added. The T240-w/o sample was prewarmed at 37° C. for 5 min and 1 μL of 4 mM test compound solution was added. After 240 min incubation, 1200 μL of ACN was added and then vortexed at 1000 rpm for 5 min.
as §6, §7

[3] = system: JIMT-1; experiment: in vitro cell killing activity, JIMT-1 cells (CellTiter Glo viability); assay type: cell-based; conditions: JIMT-1 cells; for IC50: Homo sapiens, read-out: JIMT-1 IC50
Description: (§8) Serial dilutions of free drug in 100% DMSO (1:4 10 pts starting from 100 uM) were prepared. Serially diluted payload was transferred into Opti-Mem with 0.1% BSA (10 uL into 990 uL media). Serial dilutions of ADCs/isotype controls at 1:4 in Opti-Mem with 0.1% BSA (starting from 5×1000 nM) were prepared. 20ul assay media diluted ADC/isotype conjugates as well as free drug were transferred to above cells. The plates were incubated at 37° C., 5% CO2 for 6 days. Plates were developed by adding 100ul CellTiter Glo 2.0. RT 5-10 min. Plates were read with Envision plate reader. Data was analyzed using Prism. Only inner 60 well are used for the assay. The edge wells were filled with media to prevent dry out.

[4] = system: Calu-3; experiment: anti-Her2 viability assay, Calu-3 cells (target positive); assay type: cell-based; conditions: Calu-3 target positive cells, 6 days; for IC50: Homo sapiens, 144 h, read-out: Calu-3 IC50
Description: (§9) The anti-Her2 viability assay protocol is following.
(§10) 0.1% BSA was added to the Opti-MEM reduced serum media [Gibco, cat #31985-070]. This assay media was used for the dilution of ADC and free drug.
(§11) Cells were seeded in their growth media into 96 well plates (Thermo #136101) one day prior to adding ADCs: 1000/well SKBR3 cells in 80 uL media (target positive cells), 1000/well NCI-N87 cells in 80 uL media (target positive cells), 1000/well Calu-3 in 80 uL media (target positive cells), and 800/well NCI-H1975 cells in 80ul media (target negative cells).
as §8

[5] = system: SK-BR-3 cells; experiment: SKBR3 cell-based anti-proliferation / viability assay (CellTiter-Glo); design: species or system human; conditions: for EC50: Homo sapiens, SK-BR-3, read-out: SKBR3 EC50; for SKBR3 % Kill: SKBR3 target positive cells, 6 days
Description: as §9, §10, §11, §8
The cell line used in the anti-proliferation assays was SK-BR-3, a human breast, adenocarcinoma (pleural effusion) cell line; The cells were grown in McCoy's 5a Medium+10% FBS. To run the assay, the cells (80 μl, 1000 cells) were added to each well in a 96-well plate and incubated for 24 hours at 37° C. with CO2. Next, the cells were treated with test compounds (20 μl) at various concentrations in appropriate cell culture medium (total volume, 0.1 mL). The control wells contain cells and the medium but lack the test compounds. The plates were incubated for 144 hours at 37° C. with CO2. CTG reagent was then added to the wells (100 μl). After the plates were shaken for 10 min and then incubated for 10 min at room temperature, paste the clear bottom with white back seal and record luminescence with Envision. The inhibition % was calculated according to the following equation: inhibition %=[1-(assay-blank)/(control-blank)]×100.

[6] = in vitro; conditions: human, plasma
[7] = Mouse whole blood stability test; assay type: in vitro ADME
Description: In vitro stability of Linker-Prodrug in mouse whole blood Scheme 15. Metabolism of LP1 (M2980) in whole blood.
Stock solution of test compound was provided in 100% DMSO. The stock solution for each compound was diluted into 500 μM with mixture of 50% acetonitrile, then diluted into mouse blood to achieve a final concentration of 1.0 μM. 1.0 μM of test compound in duplicate was incubated in blood at 37° C. Aliquots of 50 uL sample was collected at 0, 15, 30, 60, 120, 240, 480 min, and 24 hours. Reactions were terminated at various time points (0, 15, 30, 60, 120, 240, 480 min, 24 hours) by adding 200 μL of ice-cold acetonitrile containing internal standard with 1% formic acid and then ultrasound for 30 seconds. Plate was centrifuged (4000 rpm, 15 min). 50 μL of supernatants were transferred into a daughter plate containing 200 μL of H2O in each well. The samples were mixed well and analyzed with UPLC-MS/MS.
A Waters liquid chromatographic system was used. Detection was performed on AP14000 Q-Trap and AP15500 mass spectrometer equipped with TurbolonSpray (ESI) Interface (Applied Biosystems, Concord, Ontario, Canada). Analyst 1.5 and 1.6.2 software packages (Applied Biosystems) were used to control the LC-MS/MS system, as well as for data acquisition and processing.
Chromatographic separation was achieved on the Wates BEH C18 column (50*2.1 mm ID, 1.7 μm). The column temperature was maintained at ambient temperature (25° C.). The flow rate was maintained at 0.6 mL/min and the following mobile phases were used: water (0.1% formic acid, v/v) (phase A) and acetonitrile (0.1% formic acid, v/v) (phase B).
Test compounds (1.0 μM) were incubated in blood at 37° C. in duplicate. Aliquots of 50 uL sample was collected at 0, 15, 30, 60, 120, 240, 480 min, and 24 hours. Reactions were terminated at various time points (0, 15, 30, 60, 120, 240, 480 min, 24 hours by adding 200 μL of ice-cold acetonitrile containing internal standard with 1% formic acid, then ultrasound for 30 seconds. The plate was centrifuged (4000 rpm, 15 min). 50 μL of supernatants were transferred into a daughter plate containing 200 μL of water in each well. Samples were mixed well and analyzed with UPLC-MS/MS.
The % was calculated based on initial 1 uM as 100% and the standard concentration curve.

[8] = system: NCI-H1975 cells; experiment: anti-Her2 viability assay, NCI-H1975 cells (target negative); assay type: cell-based; conditions: NCI-H1975 target negative cells, 6 days; for IC50: Homo sapiens, 144 h, read-out: H1975 IC50
Description: as §9, §10, §11, §8

[9] = system: NCI-N87 cells; experiment: anti-Her2 viability assay, NCI-N87 cells (target positive); assay type: cell-based; conditions: NCI-N87 target positive cells, 6 days; for IC50: Homo sapiens, 144 h, read-out: N87 IC50
Description: as §9, §10, §11, §8

[10] = Human plasma stability
[11] = whole blood, mouse blood, read-out: Mouse blood stability T1/2 (converted)

SMILES | IC50 [3] [nM] | JIMT-1 % Kill [3] [%] | Human plasma stability % Remaining at 24 h [%] | Calu-3 % Kill [4] [%] | IC50 [4] [nM] | EC50 [5] [nM] | SKBR3 % Kill [5] [%] | half-life [6] [h] | half-life at 1 μM ([7]; mouse, blood) [h] | Mouse blood stability % Remaining at 24 h ([7]; mouse, blood, 1 μM) [%] | IC50 [8] [nM] | H1975 % Kill [8] [%] | IC50 [9] [nM] | N87 % Kill [9] [%] | half-life [10] [h] | Human plasma stability % Remaining at 24 h [10] [%] | Mouse blood stability % Remaining at 24 h ([7]; mouse blood) [%] | half-life at 1 μM [7, 11] [h] | other results
CC[C@@](O)(C(=O)O)c1cc2n(c(=O)c1CO)Cc1c-2nc2cc(F)c(C)c3c2c1[C@@H](NC(=O)COCNC(=O)CN)CC3 [MP1R] | – | – | – | – | – | – | – | – | – | – | – | – | – | – | – | – | – | – | Relative UV Abundance* (%) [1]: 0.29%; Relative UV Abundance* (%) ([2]; M3385 incubated in human liver S9 without NADPH and UDPGA, single peak (parent or metabolite)): 0.38%
CC[C@@]1(O)C(=O)OCc2c1cc1n(c2=O)Cc2c-1nc1cc(F)c(C)c3c1c2[C@@H](NC(=O)COCNC(=O)CN)CC3 [MP1] | – | – | – | – | – | – | – | – | – | – | – | – | – | – | – | – | – | – | Relative UV Abundance* (%), group total ([2]; human, 10 μM, pH 7.4): 4.93%
CC[C@@]1(O)C(=O)OCc2c1cc1n(c2=O)Cc2c-1nc1cc(F)c(C)c3c1c2[C@@H](NC(=O)COCNC(=O)[C@@H](N)CCC(N)=O)CC3 [P3, (2S)-2-amino-N-[({[(10S,23S)-10-ethyl-18-fluoro-10-hydroxy-19-methyl-5,9-dioxo-8-oxa-4,15-diazahexacyclo[14.7.1.0^2,14.0^4,13.0^6,11.0^20,24]tetracosa-1,6(11),12,14,16,18,20(24)-heptaen-23-yl]carbamoyl}methoxy)methyl]pentanediamide] | 88.6 | 81.3 | 48.9 | 90.7 | 15.9 | 11.6 | 94.3 | 24.1 | 1 | 6.5 | 54.5 | 88.5 | 30.4 | 95.5 | – | – | – | – | –
CC[C@@]1(O)C(=O)OCc2c1cc1n(c2=O)Cc2c-1nc1cc(F)c(C)c3c1c2[C@@H](NC(=O)COCNC(=O)[C@@H](N)CO)CC3 [P2, (2S)-2-amino-N-[({[(10S,23S)-10-ethyl-18-fluoro-10-hydroxy-19-methyl-5,9-dioxo-8-oxa-4,15-diazahexacyclo[14.7.1.0^2,14.0^4,13.0^6,11.0^20,24]tetracosa-1,6(11),12,14,16,18,20(24)-heptaen-23-yl]carbamoyl}methoxy)methyl]-3-hydroxypropanamide] | 23.8 | 92.7 | 80.4 | 93.2 | 5.68 | 5.89 | 97.0 | 65.4 | 2.5 | 34.1 | 19.9 | 98.0 | 8.93 | 98.4 | – | – | – | – | –
CC[C@@]1(O)C(=O)OCc2c1cc1n(c2=O)Cc2c-1nc1cc(F)c(C)c3c1c2[C@@H](NC(=O)COCNC(=O)[C@@H](N)CCC(=O)O)CC3 [P4, (4S)-4-amino-4-{[({[(10S,23S)-10-ethyl-18-fluoro-10-hydroxy-19-methyl-5,9-dioxo-8-oxa-4,15-diazahexacyclo[14.7.1.0^2,14.0^4,13.0^6,11.0^20,24]tetracosa-1,6(11),12,14,16,18,20(24)-heptaen-23-yl]carbamoyl}methoxy)methyl]carbamoyl}butanoic acid] | 20.7 | 92.0 | – | 93.7 | 5.67 | 6.63 | 96.6 | – | – | – | 24.1 | 96.8 | 9.84 | 97.7 | 107 | 90.4 | 66.1 | 9.2 | –
CC[C@@]1(O)C(=O)OCc2c1cc1n(c2=O)Cc2c-1nc1cc(F)c(C)c3c1c2[C@@H](NC(=O)COCNC(=O)[C@@H](N)Cc1ccccc1)CC3 [P7, (2S)-2-amino-N-[({[(10S,23S)-10-ethyl-18-fluoro-10-hydroxy-19-methyl-5,9-dioxo-8-oxa-4,15-diazahexacyclo[14.7.1.0^2,14.0^4,13.0^6,11.0^20,24]tetracosa-1,6(11),12,14,16,18,20(24)-heptaen-23-yl]carbamoyl}methoxy)methyl]-3-phenylpropanamide] | 13.2 | 93.4 | – | 93.7 | 3.32 | 1.98 | 97.0 | – | – | – | 8.96 | 98.8 | 4.41 | – | 24.4 | 51.3 | 6.3 | 0.2 | –
